# Data taken from patent US10336701B2, “Pyridin-2-one derivatives of formula (II) useful as EP3 receptor antagonists” (Janssen Pharmaceutica NV, priority 2017, dated 2019).
# How the values were obtained:
# EP3 receptor [1] = target: T1, EP3 receptor (Homo sapiens, UniProt P43115); assay: CHO cell cAMP assay (forskolin and sulprostone stimulated, HTRF); format: cell-based; conditions: CHO cells; sulprostone 700 nM (EC80) and FSK 2 μM (EC70), 37° C. for 30 minutes; read-out: CHO_cAMP IC50
# T1 construct: purchased Millipore HTS092M
# T1 sequence (P43115 1-390): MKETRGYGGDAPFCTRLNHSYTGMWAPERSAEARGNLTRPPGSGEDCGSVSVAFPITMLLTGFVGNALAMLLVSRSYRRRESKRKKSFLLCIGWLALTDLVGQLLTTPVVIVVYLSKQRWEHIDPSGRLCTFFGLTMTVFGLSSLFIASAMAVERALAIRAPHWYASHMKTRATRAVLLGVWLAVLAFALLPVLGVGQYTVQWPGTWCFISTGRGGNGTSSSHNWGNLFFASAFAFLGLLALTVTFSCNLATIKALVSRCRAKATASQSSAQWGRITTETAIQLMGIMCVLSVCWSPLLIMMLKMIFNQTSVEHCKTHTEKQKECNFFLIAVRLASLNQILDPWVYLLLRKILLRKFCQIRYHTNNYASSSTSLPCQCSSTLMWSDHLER
# Experimental: For detection, a homogeneous competitive immunoassay (Time Resolved Fluorescence Energy Transfer (hTR-FRET)) was used.
# Cells (6K cells per well) were plated in Poly-D-Lysine coated plates the day before the assay was to be run and were incubated at 37° C. […] At the start of the assay the buffer was removed from the cells and replaced with buffer containing test compound(s). Sulprostone at an EC80 dose (700 nM) and FSK at an EC70 dose (2 μM) were added to initiate the reaction (37° C. for 30 minutes).
# FSK increases cAMP production and sulprostone decreases cAMP production produced by FSK. In this assay, EP3 antagonists will increase the cAMP to the level of cAMP generated by FSK alone.
# Approximately one hour later the plates were read on an Envision (Perkin Elmer) in HTRF mode.
# NSP, NSN, NSsample were converted to nM cAMP using the following equation: […]
# IC50 values were determined from a […] (Hill equation) of a single 11-point compound dosing.
# EP3 receptor [2] = target: T1, EP3 receptor; assay: [3H]-PGE2 binding assay (EP3 competition binding); conditions: read-out: [3H]-PGE2 Binding Ki
# Procedure, shortened: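 Scintillation-bead competition binding with EP3 membranes (2 μg/well), 2 nM [3H]-PGE2, 0.1% DMSO, in 50 mM Tris, 10 mM MgCl2, 1 mM EDTA, pH 7.4.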
SMILES,IC50 (EP3 receptor [1]),Ki (EP3 receptor [2])
"O=C1NC(=O)/C(=C/C(c2ccc(-c3ccc4cccc(F)c4c3)[nH]c2=O)C2CCCCC2)O1 (centres unmarked) [compound 134, (Z)-5-(2-cyclohexyl-2-(6-(8-fluoronaphthalen-2-yl)-2-oxo-1,2-dihydropyridin-3-yl)ethylidene)oxazolidine-2,4-dione]",0.008 µM,0.004 µM
CC(=C1OC(=O)NC1=O)C(c1ccc(-c2ccc3cccc(F)c3c2)[nH]c1=O)C(C)C (centres unmarked) [compound 84],0.026 µM,0.007 µM
"CC1(c2ccc(-c3ccc4ccccc4c3)[nH]c2=O)CNC(NS(C)(=O)=O)=N1 (centres unmarked) [compound 290, N-[4-methyl-4-[6-(naphthalen-2-yl)-2-oxo-1,2-dihydropyridin-3-yl]-4,5-dihydro-1H-imidazol-2-yl]methanesulfonamide]",1.91 µM,0.116 µM
"CC(C)C(/C=C1\OC(=O)NC1=O)c1ccc(-c2cc(F)c3cnn(C4CCCC4)c3c2)[nH]c1=O (centres unmarked) [compound 124, (Z)-5-(2-(6-(1-cyclopentyl-4-fluoro-1H-indazol-6-yl)-2-oxo-1,2-dihydropyridin-3-yl)-3-methylbutylidene)oxazolidine-2,4-dione]",19.2 µM,0.202 µM
"CC(C)C(F)(C(=O)NS(=O)(=O)c1cc(F)cc(F)c1)c1ccc(-c2ccc3cccc(F)c3c2)[nH]c1=O (centres unmarked) [compound 173, N-((3,5-difluorophenyl)sulfonyl)-2-fluoro-2-(6-(8-fluoronaphthalen-2-yl)-2-oxo-1,2-dihydropyridin-3-yl)-3-methylbutanamide]",1.3 µM,0.153 µM
"CCn1ncc2c(F)cc(-c3ccc(C4CCN(C(=O)CO)CC4)c(=O)[nH]3)cc21 [compound 197, 6-(1-ethyl-4-fluoro-1H-indazol-6-yl)-3-(1-(2-hydroxyacetyl)piperidin-4-yl)pyridin-2(1H)-one]",0.967 µM,0.169 µM
"CCN1CCOc2c(F)cc(-c3ccc(C(CN4CCS(=O)(=O)CC4)C(C)C)c(=O)[nH]3)cc21 (centres unmarked) [Compound #129, 4-{2-[6-(4-ethyl-8-fluoro-2,3-dihydro-1,4-benzoxazin-6-yl)-2-oxo-1H-pyridin-3-yl]-3-methylbutyl}-1,4-thiomorpholine-1,1-dione]",0.149 µM,0.006 µM
"CC(C)C(C(=O)NCCOCCN(C)C)c1ccc(-c2ccc3cccc(F)c3c2)[nH]c1=O (centres unmarked) [compound 233, N-(2-(2-(dimethylamino)ethoxy)ethyl)-2-(6-(8-fluoronaphthalen-2-yl)-2-oxo-1,2-dihydropyridin-3-yl)-3-methylbutanamide]",0.325 µM,0.015 µM
"CCn1ncc2c(F)cc(-c3ccc(C(CC)(CC)c4ncco4)c(=O)[nH]3)cc21 [Compound #30, 6-(1-ethyl-4-fluoro-1H-indazol-6-yl)-3-(3-(oxazol-2-yl)pentan-3-yl)pyridin-2(1H)-one]",0.012 µM,0.002 µM
"CCN1CCOc2ccc(-c3ccc(C(CC)(CC)CC4OC(=O)NC4=O)c(=O)[nH]3)cc21 (centres unmarked) [compound 44, 5-(2-ethyl-2-(6-(4-ethyl-3,4-dihydro-2H-benzo[b][1,4]oxazin-6-yl)-2-oxo-1,2-dihydropyridin-3-yl)butyl)oxazolidine-2,4-dione]",0.505 µM,0.093 µM
"CC(C)C(/C=C1\OC(=O)NC1=O)c1ccc(-c2cc(Cl)c3c(c2)ncn3C)[nH]c1=O (centres unmarked) [compound 97, (Z)-5-(2-(6-(7-chloro-1-methyl-1H-benzo[d]imidazol-5-yl)-2-oxo-1,2-dihydropyridin-3-yl)-3-methylbutylidene)oxazolidine-2,4-dione]",0.666 µM,0.179 µM
"CC1(c2ccc(-c3ccc4ccccc4c3)[nH]c2=O)CNC(N)=N1 (centres unmarked) [compound 287, 3-(2-amino-4-methyl-4,5-dihydro-1H-imidazol-4-yl)-6-(naphthalen-2-yl)pyridin-2(1H)-one]",8.68 µM,0.157 µM
"CC(C)C(N/C(N)=N/C#N)c1ccc(-c2ccc3cccc(F)c3c2)[nH]c1=O (centres unmarked) [compound 268, (E)-2-cyano-1-(1-(6-(8-fluoronaphthalen-2-yl)-2-oxo-1,2-dihydropyridin-3-yl)-2-methylpropyl)quanidine]",0.017 µM,0.006 µM
"O=c1[nH]c(-c2ccc3ccccc3c2)ccc1C1CCc2n[nH]cc2C1 (centres unmarked) [compound 195, 6-(naphthalen-2-yl)-3-(4,5,6,7-tetrahydro-2H-indazol-5-yl)pyridin-2(1H)-one]",0.286 µM,0.042 µM
"CCn1cnc2c(F)c(-c3ccc(C(C=C4OC(=O)NC4=O)C(C)C)c(=O)[nH]3)ccc21 (centres unmarked) [compound 90, 5-(2-(6-(1-ethyl-4-fluoro-1H-benzo[d]imidazol-5-yl)-2-oxo-1,2-dihydropyridin-3-yl)-3-methylbutyli-dene)oxazolidine-2,4-dione]",5.43 µM,0.633 µM
"CC(C)C1(Cc2ccc(-c3ccc4cccc(F)c4c3)[nH]c2=O)OC(=O)NC1=O (centres unmarked) [Compound #262, 5-((6-(8-fluoronaphthalen-2-yl)-2-oxo-1,2-dihydropyridin-3-yl)methyl)-5-isopropyloxazolidine-2,4-dione]",0.282 µM,0.152 µM
"CO/N=C1\NC(=O)C(c2ccc(-c3ccc4cccc(F)c4c3)[nH]c2=O)(C(C)C)N1 (centres unmarked) [compound 237, (Z)-6-(8-fluoronaphthalen-2-yl)-3-(4-isopropyl-2-(methoxyimino)-5-oxoimidazolidin-4-yl)pyridin-2(1H)-one]",0.012 µM,0.004 µM
"CCn1cc2c(C)cc(-c3ccc(C(CC4OC(=O)NC4=O)C(C)C)c(=O)[nH]3)cc2n1 (centres unmarked) [compound 86, 5-(2-(6-(2-ethyl-4-methyl-2H-indazol-6-yl)-2-oxo-1,2-dihydropyridin-3-yl)-3-methylbutyl)oxazolidine-2,4-dione]",0.916 µM,0.114 µM
"CC(C)C(CC(=O)NS(=O)(=O)c1cc(Cl)c(Cl)s1)c1ccc(-c2ccc3cccc(F)c3c2)[nH]c1=O (centres unmarked) [compound 256, N-(4,5-dichlorothiophen-2-ylsulfonyl)-3-(6-(8-fluoronaphthalen-2-yl)-2-oxo-1,2-dihydropyridin-3-yl)-4-methylpentanamide]",0.579 µM,0.164 µM
"CS(=O)(=O)N1CCC(c2ccc(-c3ccc4ccccc4c3)[nH]c2=O)CC1 [compound 186, 3-(1-(methylsulfonyl)piperidin-4-yl)-6-(naphthalen-2-yl)pyridin-2(1H)-one]",2.83 µM,0.04 µM
"CC(C)/C(Cc1ccc(-c2ccc3cccc(F)c3c2)[nH]c1=O)=C1/OC(=O)NC1=O [Compound #306, (E)-5-(1-(6-(8-fluoronaphthalen-2-yl)-2-oxo-1,2-dihydropyridin-3-yl)-3-methylbutan-2-ylidene)oxazolidine-2,4-dione]",0.111 µM,0.054 µM
"CC(C)S(=O)(=O)N1CCC(c2ccc(-c3ccc4cc(F)ccc4c3)[nH]c2=O)CC1 [compound 199, 6-(6-fluoronaphthalen-2-yl)-3-(1-(isopropylsulfonyl)piperidin-4-yl)pyridin-2(1H)-one]",> 20 µM,> 10 µM
"CCn1ncc2c(C)cc(-c3ccc(C(/C=C4\OC(=O)NC4=O)C(C)C)c(=O)[nH]3)cc21 (centres unmarked) [compound 106, (Z)-5-(2-(6-(1-ethyl-4-methyl-1H-indazol-6-yl)-2-oxo-1,2-dihydropyridin-3-yl)-3-methylbutylidene)oxazolidine-2,4-dione]",0.555 µM,0.05 µM
"CC(C)C(Cc1cc(Cl)c(-c2ccc3cccc(F)c3c2)[nH]c1=O)c1noc(=O)[nH]1 (centres unmarked) [Compound #272, 3-(1-(5-chloro-6-(8-fluoronaphthalen-2-yl)-2-oxo-1,2-dihydropyridin-3-yl)-3-methylbutan-2-yl)-1,2,4-oxadiazol-5(4H)-one]",> 20 µM,> 10 µM
"CC(C)C(C)(C(N)=O)c1ccc(-c2ccc3ccccc3c2)[nH]c1=O (centres unmarked) [compound 232, 2,3-dimethyl-2-(6-(naphthalen-2-yl)-2-oxo-1,2-dihydropyridin-3-yl)butanamide]",1.63 µM,0.125 µM
"O=c1[nH]c(-c2ccc3ccccc3c2)ccc1C1CCOCC1 [compound 192, 6-(naphthalen-2-yl)-3-(tetrahydro-2H-pyran-4-yl)pyridin-2(1H)-one]",1.33 µM,0.06 µM
"CC1=NC(C)(c2ccc(-c3ccc4ccccc4c3)[nH]c2=O)C(=O)N1 (centres unmarked) [compound 223, 3-(2,4-dimethyl-5-oxo-4,5-dihydro-1H-imidazol-4-yl)-6-(naphthalen-2-yl)-1,2-dihydropyridin-2-one]",3.58 µM,0.496 µM
"CC(C)C(Cc1ccc(-c2ccc3cccc(F)c3c2)[nH]c1=O)c1nnc[nH]1 (centres unmarked) [compound 309, 6-(8-Fluoronaphthalen-2-yl)-3-(3-methyl-2-(4H-1,2,4-triazol-3-yl)butyl)pyridin-2(1H)-one]",0.066 µM,0.012 µM
